According to patent publication US7414154B2, “Polyamine compounds and compositions for use in conjunction with cancer therapy” (Wisconsin Alumni Research Foundation, priority 2002, dated 2008):

How the values were obtained:
23SK skin cells = experiment: cell cycle distribution by flow cytometry; format: cell-based, human; details: 23SK cells
Text: FIGS. 5A-5D are cell histograms showing the results from flow cytometry analysis of chemoprotective polyamine-treated 23SK skin cells.
In FIG. 5, cell histograms showing the results from flow cytometry analysis of chemoprotective polyamine-treated 23SK skin cells are shown. […] The transient nature of the cell cycle block induced by chemoprotective polyamines is believed to be an important aspect of their efficacy, i.e., their ability to block cell cycle progression in stem cells during the course of chemo- or radiotherapy, and the resumption of normal stem cell division after a given cancer therapy course has been completed.

[1] = test system: p21 protein in 23SK human skin cells; experiment: p21 induction by western analysis; format: cell-based; details: 30 hr exposure
Experimental: FIGS. 3A and 3B illustrate the level of induced p21 protein seen in diploid human fibroblasts after a 30 hr exposure to each of the indicated chemoprotective polyamines. […] In these experiments, the 23SK human skin cells were exposed for 30 hr to an “IC80” dose of each of the indicated chemoprotective polyamines and then lysed. Cell extracts were then prepared in order to measure p21 levels by western analysis (FIG. 3A).
FIG. 3 illustrates that chemoprotective polyamines are able to induce expression of the negative cell cycle regulatory protein, p21, after exposing the human skin cells to the polyamine molecules. […] In these experiments, the 23SK human skin cells were exposed for 30 hr to an “IC80” dose of each of the indicated chemoprotective polyamines and then lysed. Cell extracts were then prepared in order to measure p21 levels by western analysis (FIG. 3A). Although the ability of modified polyamines to induce p21 is known in the literature (Kramer, D. et al., Cancer Res. 59:1278-1286, 1999), it is a novel aspect of this invention that those chemoprotective polyamines with longer aliphatic “arms” were better able to induce expression of p21 as shown in FIG. 4.

Row | Compound | Cell Cycle Distribution At IC80 Dose (%) G1 (23SK skin cells) [%] | Cell Cycle Distribution At IC80 Dose (%) G2/M (23SK skin cells) [%] | Cell Cycle Distribution At IC80 Dose (%) S (23SK skin cells) [%] | p21 fold-induction at IC80 Dose [1] [fold]
1 | CCNCCCCNCCCCNCCCCNCC=C(CS)CNCCCCNCCCCNCCCCNCC [PrC-116] | 66 | 23 | 11 | 
2 | CCNCCCCNCCCCNCCCCNCCCCNCC=C(CS)CNCCCCNCCCCNCCCCNCCCCNCC [PrC-117] | 86 | 3 | 11 | ~3.0
3 | CCNCCCCNCCCCNCCCCNCCCCNCC=C(CNCCCCNCCCCNCCCCNCCCCNCC)CN(C)C [PrC-121] | 76 | 20 | 4 | 
